Assay results published in US20080234245A1, “Angiostatic Agents for Controlling Choroidal Neovascularisation After Ocular Surgery or Trauma” (priority 2004, published 2008).

Key:
[1] = test system: choroidal neovascularization (CNV) in C57BL/J mice; assay: Laser-induced choroidal neovascularization (CNV) in mice, rupture of Bruch's membrane; format: in vivo, mouse; conditions: for CNV versus vehicle-injected controls: single 5 μl intravitreal injection, 14 days post-laser
Text: Choroidal neovascularization (CNV) was induced in C57BL/J mice by rupturing Bruch's membrane via focal laser photocoagulation (FIG. 3). (Tobe T, et al., AM. J. PATHOL., 153:1641-1646 (1998)). Three to four retinal burns were placed in randomly assigned eye using the Alcon 532 nm EyeLite laser (75 μm spot size, 0.1 seconds duration, 120 mW) with a slit lamp delivery system. The laser burns were used to generate a rupture in Bruch's membrane, which was indicated opthalmoscopically by the formation of a bubble under the retina. Only mice with laser burns that produced three bubbles per eye were included in the study. Burns were typically placed at the 3, 6, 9 or 12 o'clock positions in the posterior pole of the retina, avoiding the branch retinal arteries and veins.
Each mouse was randomly assigned into one of the following treatment groups after laser: noninjected controls, sham-injected controls, vehicle-injected mice, or one of three anecortave acetate-injected groups. Control mice received laser photocoagulation in both eyes, where one eye received a sham injection, i.e. a pars plana needle puncture. For intravitreal-injected animals, one laser-treated eye received a 5 μl intravitreal injection of 0%, 0.1%, 1%, or 10% anecortave acetate. The intravitreal injection was performed immediately after laser photocoagulation.
Fourteen days post-laser, all mice were euthanized and systemically perfused with fluorescein-labeled dextran. Eyes were then harvested and prepared as choroidal flat mounts, and the 2-dimensional CNV area was quantified with computerized digital analysis, (Mori K., et al., AM. J. PATHOL. 159:313-320 (2001)). The median CNV area/burn per mouse per treatment was used for statistical analysis; P≦0.05 was considered significant.

[2] = test system: posterior segment neovascularization (NV); conditions: intravitreal injection, rat OIR model (Penn 2001); cited from earlier work
[3] = Clark 1999; cited from earlier work

CC(=O)OCC(=O)[C@@]1(O)CC[C@H]2[C@@H]3CCC4=CC(=O)CC[C@]4(C)C3=CC[C@@]21C [anecortave acetate, 4,9(11)-pregnadien-17α,21-diol-3,20-dione-21-acetate]
CNV versus vehicle-injected controls ([1]; 0.1% anecortave acetate): No difference
CNV versus vehicle-injected controls ([1]; 1% anecortave acetate): No difference
CNV development seen as hyperfluorescent area at the site of laser photocoagulation (FIG. 4) ([1]; 10% anecortave acetate versus controls, choroidal flat mounts, fluorescein-labeled dextran): gross reduction in CNV development
effect on laser-induced choroidal neovascularization (FIG. 5) ([1]; single intravitreal injection in the mouse): inhibits laser-induced choroidal neovascularization
efficacy against posterior segment neovascularization (NV) [2]: reproducible efficacy
conventional glucocorticoid (anti-inflammatory) or mineralocorticoid activity [3]: devoid of conventional glucocorticoid (anti-inflammatory) or mineralocorticoid activity
